Laboratory results taken from ChEMBL document CHEMBL3727348, “3-(aryl or heteroaryl) methyleneindolin-2-one derivatives as inhibitors of cancer stem cell pathway kinases for the treatment of cancer” (2014).

Columns and labels:
Format in all cases: functional, cell-based
FaDu [1] = test: Cytotoxic activity against human FADU bulk cells incubated for 72 hrs by Cell-titer-Glo luminescence assay
FaDu [2] = test: Cytotoxic activity against human FADU cancer stem cells incubated for 72 hrs by Cell-titer-Glo luminescence assay
A549 [3] = test: Cytotoxic activity against human A549 bulk cells incubated for 72 hrs by Cell-titer-Glo luminescence assay; settings: A549, 72 h
ACHN = test: Cytotoxic activity against human ACHN bulk cells incubated for 72 hrs by Cell-titer-Glo luminescence assay
A549 [4] = test: Cytotoxic activity against human A549 cancer stem cells incubated for 72 hrs by Cell-titer-Glo luminescence assay; settings: A549, 72 h

Compound	IC50 (FaDu [1]) [µM]	IC50 (FaDu [2]) [µM]	further results
CCN(CC)CCNC(=O)c1c(C)[nH]c(/C=C2\C(=O)Nc3ccc(C4CCN(C5CCOCC5)CC4)cc32)c1C	23.9	–	–
Cc1[nH]c(/C=C2\C(=O)Nc3ncc(-c4csc(-c5ccccc5)n4)cc32)c(C)c1C(=O)N1CCN(C)CC1	39.2	–	–
O=C1Nc2ccc(-c3csc(-c4ccccc4)n3)cc2/C1=C/c1ccc(C(=O)NCCN2CCOCC2)c(=O)[nH]1	–	33.7	–
Cc1[nH]c(/C=C2\C(=O)Nc3ccc(-c4cnn(-c5ccccc5)c4C)cc32)c(C)c1C(=O)N1CCN(C)CC1	–	14.8	–
Cc1[nH]c(/C=C2\C(=O)Nc3ccc(-c4cnc(-c5ccccc5)o4)cc32)c(C)c1C(=O)N1CCN(C)CC1	12.1	9.35	–
O=C1Nc2ccc(-c3csc(-c4ccccc4)n3)cc2/C1=C/c1ccc(N2CCOCC2)cc1	35.5	–	–
Cc1cc(C)c(/C=C2\C(=O)Nc3ccc(-c4nc5ccccc5s4)cc32)[nH]1	26.8	–	IC50 (A549 [3]): 16.1 µM; IC50 (ACHN): 14.7 µM
O=C1Nc2ccc(-c3csc(-c4ccncc4)n3)cc2/C1=C/c1ccc(N2CCOCC2)cc1	17.5	–	–
Cc1[nH]c(/C=C2\C(=O)Nc3ccc(-c4csc(-c5ccncc5)n4)cc32)c(C)c1CCC(=O)O	–	–	IC50 (ACHN): 14.6 µM
CCN(CC)CCNC(=O)c1ccc(/C=C2\C(=O)Nc3ccc(-c4csc(-c5ccccc5)n4)cc32)[nH]c1=O	3.1	6.15	IC50 (A549 [3]): 3.64 µM; IC50 (ACHN): 3.31 µM
CCN(CC)CCN1CCCc2[nH]c(/C=C3\C(=O)Nc4ccc(-c5csc(-c6ccccc6)n5)cc43)c(C)c2C1=O	5.31	–	IC50 (A549 [3]): 18 µM
Cc1[nH]c(/C=C2\C(=O)Nc3ccc(-c4csc(-c5ccccc5)n4)cc32)c(C)c1CCC(=O)O	–	–	IC50 (A549 [4]): 1.65 µM
Cc1[nH]c(/C=C2\C(=O)Nc3ccc(-c4ccnn4-c4ccccc4)cc32)c(C)c1C(=O)N1CCN(C)CC1	4.55	11.5	–
Cc1cc(C)c(/C=C2\C(=O)Nc3ccc(-c4cncnc4)cc32)[nH]1	–	–	IC50 (A549 [3]): 20.8 µM; IC50 (ACHN): 12.8 µM
CCN(CC)CCNC(=O)c1c(C)[nH]c(/C=C2\C(=O)Nc3ccc(-c4cnc(-c5ccccc5)o4)cc32)c1C	9.73	41.5	IC50 (ACHN): 12.2 µM
Cc1cc(C)c(/C=C2\C(=O)Nc3cc(-c4cnc5ccccn45)ccc32)[nH]1	19.4	–	IC50 (ACHN): 20.6 µM
CCOC(=O)c1c(C)[nH]c(/C=C2\C(=O)Nc3ccc(-c4csc(-c5ccccc5)n4)cc32)c1C	–	20.2	–
CCN(CC)CCNC(=O)c1c(C)[nH]c(/C=C2\C(=O)Nc3ncc(-c4csc(-c5ccccc5)n4)cc32)c1C	–	1.6	–

Compound	IC50 (FaDu [1]) [µM]	IC50 (FaDu [2]) [µM]	further results
CCN(CC)CCNC(=O)c1c(C)[nH]c(/C=C2\C(=O)Nc3ccc(-c4cnc(-c5ccccc5)[nH]4)cc32)c1C	5.34	–	IC50 (ACHN): 20.6 µM
CCN(CC)CCNC(=O)c1[nH]c(/C=C2\C(=O)Nc3ccc(-c4csc(-c5ccccc5)n4)cc32)c2c1CCCC2	–	–	IC50 (ACHN): 9.91 µM
CCN(CC)CCNC(=O)c1c(C)[nH]c(/C=C2\C(=O)Nc3ccc(-c4cs/c(=N\c5ccccc5)n4C)cc32)c1C	5.35	2.17	–
Cc1ccc(-c2nc(-c3ccc4c(c3)/C(=C/c3[nH]c(C)c(C(=O)N5CCOCC5)c3C)C(=O)N4)cs2)cc1	3.05	–	–
Cc1cc(C)c(/C=C2\C(=O)Nc3cc(-c4ccncc4)ccc32)[nH]1	18.4	–	IC50 (A549 [4]): 0.98 µM
Cc1cc(C)c(/C=C2\C(=O)Nc3cc(-c4ccc(-c5ccccc5)nc4)ccc32)[nH]1	–	18.2	–
O=C1Nc2ccc(-c3csc(-c4ccncc4)n3)cc2/C1=C/c1ccc(N2CCNCC2)cc1	25.2	–	IC50 (A549 [3]): 8.73 µM
Cc1[nH]c(/C=C2\C(=O)Nc3ccc(-c4cnn(-c5ccccc5)c4C)cc32)c(C)c1C(=O)N1CCOCC1	6.76	37.2	–
CCN(CC)CCNC(=O)c1c(C)[nH]c(/C=C2\C(=O)Nc3cc(-c4ccc5cc[nH]c(=O)c5c4)ccc32)c1C	23.9	–	–
CCN(CC)CCNC(=O)c1c(C)[nH]c(/C=C2\C(=O)Nc3ccc(C4CCN(c5ncccn5)CC4)cc32)c1C	6.47	18.8	–
Cc1[nH]c(/C=C2\C(=O)Nc3ccc(-c4cnn(-c5ccccn5)c4)cc32)c(C)c1C(=O)N1CCOCC1	–	8.94	–
CCN(CC)CCNC(=O)c1c(C)[nH]c(/C=C2\C(=O)Nc3ccc(-c4cn(-c5ccccc5)nn4)cc32)c1C	6.74	2.9	IC50 (A549 [3]): 4.88 µM; IC50 (ACHN): 4.73 µM
Cc1[nH]c(/C=C2\C(=O)Nc3ccc(-c4ncc(-c5ccccc5)o4)cc32)c(C)c1C(=O)N1CCN(C)CC1	–	2.38	–
CCN(CC)CCNC(=O)c1c(C)[nH]c(/C=C2\C(=O)Nc3ccc(-c4csc(-c5ccccn5)n4)cc32)c1C	46.9	–	–
COc1ccc(-c2ccc3c(c2)/C(=C/c2[nH]c(C)cc2C)C(=O)N3)c(C)c1	19.8	–	IC50 (ACHN): 24.8 µM
CCN(CC)CCNC(=O)c1c(C)[nH]c(/C=C2\C(=O)Nc3ccc(-c4ccc(-c5cccnc5)s4)cc32)c1C	14.3	40.8	–
Cc1cc(C)c(/C=C2\C(=O)Nc3cc(-c4cccc(C#N)c4C)ccc32)[nH]1	–	39.1	–
